Measured values reported in patent US20250144067A1, “PERSONALIZED STARVATION THERAPY FOR CANCER” (Faeth Therapeutics, Inc., priority 2021, published 2025).
Structures can show the parent of a compound that is named as a salt. Where two headings read alike, the source gives them in different places. Peptide text beside a SMILES is read from it.

How the values were obtained:
[1] = test system: NCI-H292 lung cancer cells; experiment: FDA drug screening, complete media vs cholesterol-free media without statin (TABLE 1); format: cell-based, human
[2] = test system: NCI-H292 lung cancer cells; experiment: FDA drug screening, complete media vs cholesterol-free media with simvastatin (TABLE 2); format: cell-based, human
[3] = NCI-H292 cells, cholesterol-free media without statin
[4] = complete vs cholesterol-free media, greater than 0 enhanced anti-cancer activity, about 0 neutral, below 0 antagonists
[5] = NCI-H292 cells, FDA drug library screen, cholesterol-free media with simvastatin 0.04 μM
[6] = NCI-H292 cells, FDA drug library screen, complete media
[7] = complete media minus cholesterol-free media + simvastatin, >0 enhanced anti-cancer activity, about 0 neutral, <0 antagonist
[8] = Complete minus Cholesterol-free, >0 enhanced anti-cancer activity, about 0 neutral, <0 antagonist
[9] = NCI-H292 cells, cholesterol-free media without statin, FDA drug library screen
[10] = NCI-H292 cells, complete media, FDA drug library screen
[11] = complete media vs cholesterol-free media + simvastatin (0.04 μM), >0 enhanced anti-cancer activity, about 0 neutral, <0 antagonist
[12] = Complete minus Cholesterol-free, […]
[13] = complete vs cholesterol-free media, >0 enhanced anti-cancer activity, about 0 neutral, <0 antagonist
[14] = NCI-H292 cells, cholesterol-free media with simvastatin 0.04 μM, FDA drug library screen (TABLE 2)
[15] = NCI-H292 cells, complete media, FDA drug library screen (TABLE 2)
[16] = complete media minus cholesterol-free media + simvastatin (0.04 μM), >0 enhanced anti-cancer activity, about 0 neutral, <0 antagonist
[17] = NCI-H292 cells, drug in cholesterol-free media with simvastatin 0.04 μM
[18] = NCI-H292 cells, drug in complete media
[19] = NCI-H292 cells, cholesterol-free media with simvastatin 0.04 μM, cell growth value in FDA drug screen
[20] = NCI-H292 cells, complete media, cell growth value in FDA drug screen
[21] = complete vs cholesterol-free media, […]
[22] = complete media vs cholesterol-free media + simvastatin (0.04 μM), […]

Compound: CC(C)[C@H](N)C(=O)OCCOCn1cnc2c(=O)[nH]c(N)nc21 [Valacyclovir (hydrochloride)]
- Cholesterol-free [1, 3]: 1.143
- Complete ([1]; NCI-H292 cells, complete media): 0.7981
- Difference [1, 4]: −0.34
- Cholesterol-free media + simvastatin (0.04 μM) [2, 5]: 0.9432
- Complete Media [2, 6]: 1.26
- Difference [2, 7]: 0.32

Compound: CCCCC(CC)COC(=O)c1ccccc1O (stereo not drawn) [Octisalate]
- Difference [1, 8]: −0.04
- Cholesterol-free [1, 9]: 2.188
- Complete [1, 10]: 2.15
- Cholesterol-free media + simvastatin (0.04 μM) [2, 5]: 0.992
- Complete Media [2, 6]: 0.8834
- Difference [2, 11]: −0.11

Compound: Nc1nc(=O)c2c([nH]1)NC[C@H](CNc1ccc(C(=O)N[C@@H](CCC(=O)[O-])C(=O)[O-])cc1)N2C=O.[Ca+2] [Levoleucovorin (Calcium)]
- Difference [1, 12]: −0.05
- Cholesterol-free [1, 9]: 1.535
- Complete [1, 10]: 1.487
- Cholesterol-free media + simvastatin (0.04 μM) [2, 5]: 1.534
- Complete Media [2, 6]: 1.758
- Difference ([2]; complete media minus cholesterol-free media + simvastatin, […]): 0.22

Compound: CC(C)(Oc1ccc(C(=O)c2ccc(Cl)cc2)cc1)C(=O)[O-].C[N+](C)(C)CCO [Choline Fenofibrate]
- Difference ([1]; Complete minus Cholesterol-free, greater than 0 enhanced anti-cancer activity, about 0 neutral, below 0 antagonists): −0.65
- Cholesterol-free ([1]; NCI-H292 cells in cholesterol-free media without statin): 1.252
- Complete ([1]; NCI-H292 cells in complete media): 0.6045
- Cholesterol-free media + simvastatin (0.04 μM) [2, 5]: 1.101
- Complete Media [2, 6]: 1.295
- Difference [2, 7]: 0.19

Compound: Disodium succinate
- Cholesterol-free [1]: 1.636
- Complete [1]: 0.8171
- Difference [1]: −0.82
- Cholesterol-free media + simvastatin (0.04 μM) [2]: 1.636
- Complete Media [2]: 1.676
- Difference [2]: 0.04

Compound: Cc1nnc(NS(=O)(=O)c2ccc(N)cc2)s1 [Sulfamethizole]
- Cholesterol-free [1, 9]: 0.6059
- Complete [1, 10]: 1.186
- Difference [1, 13]: 0.58
- Cholesterol-free media + simvastatin (0.04 μM) [2, 14]: 1.154
- Complete Media [2, 15]: 1.13
- Difference [2, 16]: −0.02

Compound: Cn1cc[nH]c1=S [Methimazole]
- Difference [1, 8]: −0.20
- Cholesterol-free [1, 3]: 1.024
- Complete ([1]; NCI-H292 cells, complete media): 0.8245
- Cholesterol-free media + simvastatin (0.04 μM) [2, 5]: 1.144
- Complete Media [2, 6]: 1.001
- Difference [2, 11]: −0.14

Compound: CC(C)(CO)[C@H](O)C(=O)NCCC(=O)O.[Na] [D-Pantothenic acid (sodium)]
- Difference [1, 8]: −0.03
- Cholesterol-free [1, 9]: 1.02
- Complete [1, 10]: 0.9879
- Cholesterol-free media + simvastatin (0.04 μM) [2, 17]: 1.102
- Complete Media [2, 18]: 0.858
- Difference [2, 11]: −0.24

Compound: CC(=O)O[C@H]1C[C@H](O[C@H]2[C@@H](O)C[C@H](O[C@H]3[C@@H](O)C[C@H](O[C@H]4CC[C@@]5(C)[C@H](CC[C@@H]6[C@@H]5C[C@@H](O)[C@]5(C)[C@@H](C7=CC(=O)OC7)CC[C@]65O)C4)O[C@@H]3C)O[C@@H]2C)O[C@H](C)[C@H]1O[C@@H]1O[C@H](CO)[C@@H](O)[C@H](O)[C@H]1O [Lanatoside C]
- Difference [1, 12]: −0.02
- Cholesterol-free [1, 9]: 7.102E−18
- Complete [1, 10]: −0.02112
- Cholesterol-free media + simvastatin (0.04 μM) [2, 14]: −0.002744
- Complete Media [2, 15]: −0.008403
- Difference ([2]; complete media minus cholesterol-free media + simvastatin (0.04 μM), […]): −0.01

Compound: Cc1nc2ccc(CN(C)c3ccc(C(=O)N[C@@H](CCC(=O)O)C(=O)O)s3)cc2c(=O)[nH]1 [Raltitrexed]
- Difference [1, 8]: −0.24
- Cholesterol-free [1, 3]: 0.3503
- Complete ([1]; NCI-H292 cells, complete media): 0.1117
- Cholesterol-free media + simvastatin (0.04 μM) [2, 14]: 0.1121
- Complete Media [2, 15]: 0.0907
- Difference [2, 16]: −0.02

Compound: O=C(Cn1cnnn1)N[C@@H]1C(=O)N2C(C(=O)O)=C(CSc3nncs3)CS[C@H]12 [Ceftezole (sodium)]
- Difference ([1]; Complete minus Cholesterol-free, greater than 0 enhanced anti-cancer activity, about 0 neutral, below 0 antagonist): −0.11
- Cholesterol-free ([1]; NCI-H292 cells, FDA drug library screen, cholesterol-free media without statin): 1.089
- Complete [1, 6]: 0.9806
- Cholesterol-free media + simvastatin (0.04 μM) [2, 19]: 1.052
- Complete Media [2, 20]: 1.1
- Difference [2, 7]: 0.05

Compound: C[C@@H]1C[C@H]2[C@@H]3CCC4=CC(=O)C=C[C@]4(C)[C@@]3(F)[C@@H](O)C[C@]2(C)[C@H]1C(=O)CO [Desoximetasone]
- Difference [1, 8]: −0.06
- Cholesterol-free [1, 9]: 0.8359
- Complete [1, 10]: 0.7716
- Cholesterol-free media + simvastatin (0.04 μM) [2, 14]: 0.8194
- Complete Media [2, 15]: 0.8184
- Difference [2, 16]: 0.00

Compound: CC#CC(=O)N1CCC[C@H]1c1nc(-c2ccc(C(=O)Nc3ccccn3)cc2)c2c(N)nccn12 [Acalabrutinib]
- Cholesterol-free [1, 9]: 0.7449
- Complete [1, 10]: 0.989
- Difference [1, 13]: 0.24
- Cholesterol-free media + simvastatin (0.04 μM) [2, 5]: 1.302
- Complete Media [2, 6]: 1.618
- Difference [2, 7]: 0.32

Compound: CC(O)c1cc(C(=O)N[C@@H](C)Cn2ccc(-c3ccc(C#N)c(Cl)c3)n2)[nH]n1 (stereo partly drawn) [Darolutamide]
- Difference [1, 8]: −0.20
- Cholesterol-free [1, 3]: 1.263
- Complete ([1]; NCI-H292 cells, complete media): 1.061
- Cholesterol-free media + simvastatin (0.04 μM) [2, 19]: 0.9075
- Complete Media [2, 20]: 0.9966
- Difference [2, 7]: 0.09

Compound: CCC[S+]([O-])c1ccc2[nH]c(NC(=O)OC)nc2c1 (stereo not drawn) [Albendazole sulfoxide]
- Cholesterol-free [1, 3]: 1.467
- Complete ([1]; NCI-H292 cells, complete media): 1.005
- Difference [1, 21]: −0.46
- Cholesterol-free media + simvastatin (0.04 μM) [2, 17]: 1.376
- Complete Media [2, 18]: 1.125
- Difference [2, 22]: −0.25

Compound: COc1cc(/C=C/C(=O)O)ccc1O.[Na] [Ferulic acid (sodium)]
- Cholesterol-free [1, 9]: 1.137
- Complete [1, 10]: 1.309
- Difference [1, 13]: 0.17
- Cholesterol-free media + simvastatin (0.04 μM) [2, 14]: 0.806
- Complete Media [2, 15]: 0.766
- Difference [2, 16]: −0.04

Compound: C[C@]12CCC(=O)C=C1[C@@H]1C[C@@H]1[C@H]1[C@@H]3[C@@H]4C[C@@H]4[C@@]4(CCC(=O)O4)[C@@]3(C)CC[C@@H]12 [Drospirenone]
- Cholesterol-free [1, 3]: 1.382
- Complete ([1]; NCI-H292 cells, complete media): 1.062
- Difference [1, 4]: −0.32
- Cholesterol-free media + simvastatin (0.04 μM) [2, 17]: 1.4
- Complete Media [2, 18]: 1.139
- Difference [2, 11]: −0.26

Compound: C[C@@H]1NC(=O)[C@@H]2CCCN2C(=O)[C@H](CC(N)=O)NC(=O)[C@@H]2CSSC[C@H](N)C(=O)N[C@H]3CSSC[C@H](NC1=O)C(=O)N[C@@H]([C@@H](C)O)C(=O)NCC(=O)N[C@H](C(=O)N[C@@H](Cc1ccc(O)cc1)C(=O)O)CSSC[C@H](NC(=O)[C@H](Cc1ccc(O)cc1)NC(=O)[C@H](CCC(=O)O)NC3=O)C(=O)N2 [Linaclotide] (HELM PEPTIDE1{C.C.E.Y.C.C.N.P.A.C.T.G.C.Y}$PEPTIDE1,PEPTIDE1,1:R3-6:R3|PEPTIDE1,PEPTIDE1,2:R3-10:R3|PEPTIDE1,PEPTIDE1,5:R3-13:R3$$$V2.0)
- Cholesterol-free [1, 9]: 1.326
- Complete [1, 10]: 1.765
- Difference [1, 21]: 0.44
- Cholesterol-free media + simvastatin (0.04 μM) [2, 5]: 0.9562
- Complete Media [2, 6]: 0.8554
- Difference [2, 22]: −0.10

Compound: COc1cc2c3cc1Oc1c(OC)c(OC)cc4c1[C@@H](Cc1ccc(O)c(c1)Oc1ccc(cc1)C[C@@H]3N(C)CC2)N(C)CC4 [berbamine, reference compound]
- Cholesterol-free ([1]; NCI-H292 cells, cholesterol-free media without statin, listed as Berbamine): 1.275
- Complete ([1]; NCI-H292 cells, complete media, listed as Berbamine): 0.9674
- Difference ([1]; complete vs cholesterol-free media, […], listed as Berbamine): −0.31
- Cholesterol-free media + simvastatin (0.04 μM) ([2]; NCI-H292 cells, FDA drug library screen, cholesterol-free media with simvastatin 0.04 μM, listed as Berbamine): 0.4924
- Complete Media ([2]; NCI-H292 cells, FDA drug library screen, complete media, listed as Berbamine): 1.667
- Difference ([2]; complete media minus cholesterol-free media + simvastatin, […], listed as Berbamine): 1.17
